From patent US5401733A, “Stable and active metabolites of 1,25-dihydroxy-16-ene-cholecalciferol” (Hoffmann-La Roche Inc., priority 1993, dated 1995)
Entries after “also recorded” stand apart in the source; their conditions may differ. Like-named read-outs stand apart in the source and are kept apart here.

Legend:
hydroxylase enzymes = experiment: Metabolism in perfused rat kidneys; format: in vitro ADME; conditions: for resistance to further hydroxylation (in words): rat kidney perfusion
Protocol: The compounds of formulas I and II were prepared by perfusing 1,25(OH)2 -16-ene-D3 in rat kidneys, extracting the perfusate and isolating the compounds of formulas I and II.
Crystalline 1,25(OH)2 -16-ene-D3 was synthesized as described in U.S. Pat. No. 5,087,619, which is herein incorporated by reference to the extent necessary to enable one of skill in the art to make this invention. Rat kidneys were perfused with the 1,25(OH)2 -16-ene-D3 as described in Am. J. Physiol. 1982, 243 E265-271 and in Biochemistry 1987, 26, 324-331. Cold 1,25(OH)2 -16-ene-D3 (400 nmoles) was introduced into 100 mL of perfusate and the kidney perfusion was continued for 8 hours. Lipid extraction of the final kidney perfusate was performed according to the procedure described in Can. J. Biochem. Physiol. 1959, 37, 911-917. Half of the bulk lipid extract from the final perfusate of about 100 mL was then subjected directly to high pressure liquid chromatography (HPLC) performed with a Waters Model 600 equipped with a Model 990 photo diode array detector (Waters Associates, Milford, MA). HPLC analysis was performed on the lipid extract obtained from 50 mL of perfusate under the following conditions: Zorbax-SIL column (25 cm×4.6 mm); Hexane: 2-propanol (90:10), Flow rate: 2 mL/minutes. A known amount of 25(S),26(OH)2 -D3 was added to the perfusate at the time of lipid extraction to assess extraction of vitamin D metabolites in general. Fractions of each individual metabolite from the first HPLC run was pooled and subjected to a second HPLC run using the same Zorbax-SIL column eluted with methylene chloride:2-propanol […]. Each metablite obtained from the second HPLC run was chromatographed twice using the first HPLC system. At this time, the purity of each metabolite was adequate for its structure identification process. A control perfusion was performed with cold 1,25(OH)2 -D3 in a similar fashion and the lipid extract of the final perfusate was analyzed using the same HPLC systems as above.

HL-60 cells = experiment: Differentiation of HL-60 cells (NBT reduction), 4 days; format: cell-based, human; conditions: for Percentage of NBT positive cells, Exp. 1 / Percentage of NBT positive cells, Exp. 2 / Percentage of NBT positive cells, Average / EC50: 4 days; for Percentage of NBT positive cells, Average: average of Exp. 1 and 2; for EC50: Homo sapiens, HL-60, 96 h, NBT reduction, read-out: ED50 (concentration of compound which induced differentiation of 50% of the cells)
Protocol: Effect of 1,25(OH)2 -16-ene-24-oxo-D3 on the Morphological Differentiation of HL-60 Cells
Tissue culture medium used was RPMI-1640 (Gibco) supplemented with glutamine, antibiotics and 20% fetal bovine serum.
1,25(OH)2 -16-ene-D3 and 1,25(OH)2 -16-ene-24-oxo-D3 were dissolved in sufficient ethanol to yield stock solutions of 1 mM. Reduced lighting was used when working with the compounds and the stock solutions were stored in the dark at -20 C. in an argon atmosphere. The stock solutions were added to flasks, which were supplemented with sufficient ethanol to achieve the final concentration of 0.1%.
A HL-60 tumor cell line was originally derived from a patient with promyelocytic leukemia and was obtained from the American Type Culture Collection (ATCC #CCL240). The cells were maintained in liquid cultures by serial passage twice weekly in the tissue culture medium. For each experimental point, cells were grown in replicate flasks. The cells were seeded at a rate of 10^6 cells per 25 cm^2 flask and grown in the presence of the compounds for a total of 4 days. Ethanol, used as the vehicle, was kept constant in all dilutions in each experiment and had no effect on the cell differentiation at the concentrations used […]. After 4 days of incubation at 37° C., cultures were evaluated for cell differentiation.
Quantitation of differentiated cells was done by the biochemical method of nitroblue tetrazolium reduction (NBT) reduction. A 1 ml aliquot of cell suspension was removed from each flask and centrifuged for 10 minutes, and resuspended in about 200 μl of a work solution. The work solution contained 100 ng of tetradecanoyl phorbol acetate per ml of NBT and was kept in a covered vial on ice. The NBT was prepared fresh on the day of enumeration to 1 mg/ml in growth medium. The cells were incubated in a 37° C. water bath for 30 minutes. An aliquot was placed into a hemocytometer and the total number of blue-black cells per approximately 200 cells was determined. The percentage of differentiated cells was then calculated.
The results are also shown as the concentration of compound which induced differentiation of 50% of the cells (ED50).

human keratinocytes [1] = experiment: Keratinocyte proliferation, assay 2 (KGM without calcium supplementation, 7 days); format: cell-based; conditions: for proliferation of human keratinocytes / skin cells (in words): assays 1 and 2 not distinguished; for inhibition at 0.03 µM / inhibition at 0.1 µM / inhibition at 0.3 µM / inhibition at 1 µM: Homo sapiens, Keratinocyte, Exp. 1, read-out: Percentage Inhibition of Controls, Exp. 1; for inhibition at 0.03 µM: assay 2, 0.03 μM; for inhibition at 0.1 µM: assay 2, 0.1 μM; for inhibition at 0.3 µM: assay 2, 0.3 μM; for inhibition at 1 µM: assay 2, 1.0 μM; for antiproliferative activity, assay 2 (in words): assay 2, lower doses; for dose response (in words): low calcium and more rapidly dividing cells
Protocol: (§1) Quantitation of Morphological Changes During Keratinocyte Proliferation Materials and Methods
(§2) Human neonatal foreskins were collected by circumcision and placed into tubes containing Dulbecco's Modified Eagle's Medium (DMEM) with 10% serum. On arrival at the laboratory, they were mechanically trimmed of excess dermis, and treated with a solution of trypsin/EDTA (0.05%/0.02%) at 4° C. overnight. The epidermis was stripped from the dermis, agitated in buffered saline containing soybean trypsin inhibitor to remove basal keratinocytes and the stratum cornea layer was removed. The separated cells were centrifuged, resuspended in the above media, counted, and the cells plated onto plastic culture dishes or plates at a density of 25,000 cells/cm^2 in keratinocyte growth media (KGM®-modified MCDB 153, Clonetics, Inc., Catalog #CC3001) according to protocols developed by Boyce and Ham (In Vitro Models for Cancer Research III, 246-274, 1986) for MCDB 153 media. The cultures were incubated in humidified chambers with 5% CO2 at 37° C. The cultures were refed with fresh media two to three times per week. Prior to reaching confluency the cells were replated (passage one) at 25,000 cells/well on 6-well cluster plates (Costar catalog #3506) in KGM.
(§3) 1 milligram quantities were received in amber glass vials, and stored at -20° C. Sufficient 100% ethanol was added directly to the vials to obtain a millimolar solution that was subsequently aliquoted into small amber vials, overlayed with argon gas and stored at […] Each stock solution was thawed once, used and discarded. Aliquots from the stock solutions were diluted directly into medium and then serially diluted from micromolar to 10^-12 M concentrations. Dilutions from 10^-8 M to 10^-12 M had ethanol added for a final concentration of 0.1%. Stock solutions were used within one month. Control cultures were treated with 0.1% ethanol.
(§4) Approximately 24 hours after passage one, the cells were refed with fresh KGM supplemented to 1.5 mM CaCl2 (assay 1) containing the test compound. In a second assay (assay 2), the cells were grown in KGM without calcium supplementation to stimulate more proliferation and grown for 7 days instead of 5 days. Compounds were typically tested at 4 concentrations in triplicate wells. At the termination of the experiment, prior to the cultures reaching confluency, the cells were enumerated as follows. Dishes were rinsed with phosphate buffered saline, and then incubated with trysin/EDTA solution for 15 minutes. Cells were suspended, an aliquot placed into isotonic buffered saline and counted on an electronic particle counter (Coulter Counter). The counter was periodically calibrated for the correct size of keratinocytes. Each well was counted in triplicate. The number of cells per dish were calculated according to dilution factors used and results shown below in Table 3 are presented as percent inhibition obtained in control cultures.

human keratinocytes [2] = experiment: Keratinocyte proliferation, assay 1 (KGM supplemented to 1.5 mM CaCl2, 5 days); format: cell-based; conditions: for inhibition at 0.03 µM / inhibition at 0.1 µM / inhibition at 0.3 µM / inhibition at 1 µM: Homo sapiens, Keratinocyte; for inhibition at 0.03 µM: assay 1, 0.03 μM; for inhibition at 0.1 µM: assay 1, 0.1 μM; for inhibition at 0.3 µM: assay 1, 0.3 μM; for inhibition at 1 µM: assay 1, 1.0 μM; for antiproliferative activity, assay 1 (in words): assay 1, lower doses
Protocol: as §1, §2, §3, §4

[3] = Exp. 2, read-out: Percentage Inhibition of Controls, Exp. 2
[4] = average of Exp. 1 and 2, read-out: Percentage Inhibition of Controls, Average

SMILES | resistance to further hydroxylation (in words) (hydroxylase enzymes) | differentiation of HL-60 / human promyelocytic cells (in words) (HL-60 cells) | proliferation of human keratinocytes / skin cells (in words) (human keratinocytes [1]) | inhibition at 0.03 µM (human keratinocytes [2]; [3]) | inhibition at 0.03 µM (human keratinocytes [2]; [4]) | inhibition at 0.1 µM (human keratinocytes [2]; [3]) | inhibition at 0.1 µM (human keratinocytes [2]; [4]) | inhibition at 0.3 µM (human keratinocytes [2]; [3]) | inhibition at 0.3 µM (human keratinocytes [2]; [4]) | inhibition at 1 µM (human keratinocytes [2]; [3]) | inhibition at 1 µM (human keratinocytes [2]; [4]) | antiproliferative activity, assay 1 (in words) (human keratinocytes [2]) | Percentage of NBT positive cells, Exp. 1 (HL-60 cells; 0.001 μM) | Percentage of NBT positive cells, Exp. 2 (HL-60 cells; 0.001 μM) | Percentage of NBT positive cells, Average (HL-60 cells; 0.001 μM) | Percentage of NBT positive cells, Exp. 1 (HL-60 cells; 0.01 μM) | Percentage of NBT positive cells, Exp. 2 (HL-60 cells; 0.01 μM) | Percentage of NBT positive cells, Average (HL-60 cells; 0.01 μM) | Percentage of NBT positive cells, Exp. 1 (HL-60 cells; 0.1 μM) | Percentage of NBT positive cells, Exp. 2 (HL-60 cells; 0.1 μM) | also measured
C=C1/C(=C\C=C2/CCC[C@]3(C)C([C@H](C)CCC(O)C(C)(C)O)=CC[C@@H]23)C[C@@H](O)C[C@@H]1O (stereo partly drawn) [1,24,25(OH)3-16-ene-D3, 1,24,25-trihydroxy-16-ene-cholecalciferol] | resisted further hydroxylation from other hydroxylase enzymes | stimulate differentiation of HL-60 cells | decrease proliferation of human keratinocytes |  |  |  |  |  |  |  |  |  |  |  |  |  |  |  |  |  | 
C=C1/C(=C\C=C2/CCC[C@]3(C)C([C@H](C)CCC(=O)C(C)(C)O)=CC[C@@H]23)C[C@@H](O)C[C@@H]1O [1,25(OH)2-16-ene-24-oxo-D3, 1,25-dihydroxy-16-ene-24-oxo-cholecalciferol] | resisted further hydroxylation from other hydroxylase enzymes | induced differentiation of human promyelocytic cells; also recorded: stimulates differentiation of HL-60 cells | restrained the proliferation of skin cells | 82.8% | 80.1% | 108% | 89.1% | 73.3% | 67.8% | 73.1% | 68.1% | some antiproliferative activity at lower doses, although this activity is not dose dependent | 8.0% | 24.5% | 16.25% | 47.0% | 35.5% | 41.25% | 55.0% | 60.0% | Percentage of NBT positive cells, Average (HL-60 cells; 0.1 μM): 57.5%; Percentage of NBT positive cells, Exp. 1 (HL-60 cells; 1.0 μM): 69.0%; Percentage of NBT positive cells, Exp. 2 (HL-60 cells; 1.0 μM): 70.0%; Percentage of NBT positive cells, Average (HL-60 cells; 1.0 μM): 69.5%; EC50 (HL-60 cells): 35 nM; differentiation of HL-60 / human promyelocytic cells (in words) (HL-60 cells; listed as I): stimulate differentiation of HL-60 cells; potency relative to the parent compound (in words) (HL-60 cells; versus 1,25(OH)2 -16-ene-D3): greater than that of the parent compound; inhibition at 0.03 µM (human keratinocytes [1]): 63 ± 7.21%; inhibition at 0.1 µM (human keratinocytes [1]): 45.3 ± 9.48%; inhibition at 0.3 µM (human keratinocytes [1]): 31.1 ± 11.8%; inhibition at 1 µM (human keratinocytes [1]): 17.4 ± 8.13%; antiproliferative activity, assay 2 (in words) (human keratinocytes [1]): strong antiproliferative activity at lower doses; proliferation of human keratinocytes / skin cells (in words) (human keratinocytes [1]; listed as I): decrease proliferation of human keratinocytes; dose response (in words) (human keratinocytes [1]): good dose response curve
C=C1/C(=C\C=C2/CCC[C@]3(C)C([C@H](C)CCCC(C)(C)O)=CC[C@@H]23)C[C@@H](O)C[C@@H]1O [1,25(OH)2-16-ene-D3, 1,25-dihydroxy-16-ene-cholecalciferol] |  |  |  | 88.4% | 89.8% | 83.6% | 82.3% | 89% | 84.5% | 57.1% | 58.5% | some antiproliferative activity at lower doses, although this activity is not dose dependent | 12.0% | 18.5% | 15.25% | 30.5% | 47.5% | 39.0% | 48.0% | 61.0% | metabolism (in words) (hydroxylase enzymes; 400 nmoles in 100 mL perfusate, 8 hours): metabolized mainly into two metabolites; Percentage of NBT positive cells, Average (HL-60 cells; 0.1 μM): 54.5%; Percentage of NBT positive cells, Exp. 1 (HL-60 cells; 1.0 μM): 62.5%; Percentage of NBT positive cells, Exp. 2 (HL-60 cells; 1.0 μM): 60.5%; Percentage of NBT positive cells, Average (HL-60 cells; 1.0 μM): 61.5%; EC50 (HL-60 cells): 80 nM; inhibition at 0.03 µM (human keratinocytes [1]): 75.6 ± 3.35%; inhibition at 0.1 µM (human keratinocytes [1]): 56.2 ± 5.7%; inhibition at 0.3 µM (human keratinocytes [1]): 36 ± 10.3%; inhibition at 1 µM (human keratinocytes [1]): 22.4 ± 8.55%; antiproliferative activity, assay 2 (in words) (human keratinocytes [1]): strong antiproliferative activity at lower doses; dose response (in words) (human keratinocytes [1]): good dose response curve
